Measurements published in US20230141887A1, “CRYSTAL FORM OF DIAZASPIROPYRAN COMPOUND” (MEDSHINE DISCOVERY INC., priority 2020, published 2023).
Residue numbers refer to the chain shown, from its start.

What was measured:
FLT3(ITD, F691L) = target: T1, FLT3(ITD, F691L) (Homo sapiens, UniProt P36888, F691L, form not given); type: binding
T1 construct: fused on or other part: DNA tag for the qPCR read-out (the KINOMEscan format)
T1 sequence (P36888 1-993 F691L): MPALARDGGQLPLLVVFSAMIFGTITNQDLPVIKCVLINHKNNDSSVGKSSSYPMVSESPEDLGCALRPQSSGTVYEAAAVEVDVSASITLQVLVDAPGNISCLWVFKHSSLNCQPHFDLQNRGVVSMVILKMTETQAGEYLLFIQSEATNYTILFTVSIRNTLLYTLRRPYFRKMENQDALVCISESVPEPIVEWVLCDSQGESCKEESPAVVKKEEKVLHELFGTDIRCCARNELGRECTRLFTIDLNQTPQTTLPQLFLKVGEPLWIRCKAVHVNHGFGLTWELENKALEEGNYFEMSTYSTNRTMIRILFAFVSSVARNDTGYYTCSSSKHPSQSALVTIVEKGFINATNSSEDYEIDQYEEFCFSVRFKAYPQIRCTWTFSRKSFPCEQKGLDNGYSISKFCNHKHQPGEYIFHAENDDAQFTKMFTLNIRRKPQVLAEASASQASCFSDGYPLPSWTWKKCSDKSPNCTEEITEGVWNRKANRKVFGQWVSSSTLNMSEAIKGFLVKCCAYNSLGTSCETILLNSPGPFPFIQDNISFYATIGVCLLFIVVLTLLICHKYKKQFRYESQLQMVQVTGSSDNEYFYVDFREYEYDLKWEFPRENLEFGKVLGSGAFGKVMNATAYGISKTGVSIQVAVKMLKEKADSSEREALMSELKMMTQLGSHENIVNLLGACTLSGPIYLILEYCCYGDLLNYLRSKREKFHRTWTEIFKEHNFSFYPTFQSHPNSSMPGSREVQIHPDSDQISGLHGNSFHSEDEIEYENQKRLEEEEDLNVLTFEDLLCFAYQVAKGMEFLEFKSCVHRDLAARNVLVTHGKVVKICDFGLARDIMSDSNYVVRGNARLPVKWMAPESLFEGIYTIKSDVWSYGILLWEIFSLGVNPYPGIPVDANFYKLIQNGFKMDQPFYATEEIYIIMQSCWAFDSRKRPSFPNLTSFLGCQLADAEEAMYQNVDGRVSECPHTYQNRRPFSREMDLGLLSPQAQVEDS

FLT3(ITD) = target: T2, FLT3(ITD) (Homo sapiens, UniProt P36888); type: binding
T2 construct: fused on or other part: DNA tag for the qPCR read-out (the KINOMEscan format)
T2 sequence (P36888 1-993): T1 sequence (P36888 1-993 F691L) with L691F

For `CCc1nc(C(N)=O)c(Nc2ccc(N3CCC4(CCN(C)CC4)CC3)c(C)c2)nc1NC1CCOCC1.O=C(O)C(F)(F)F`, the Kd (FLT3(ITD, F691L); FLT3(ITD, F691L)) was 0.21 nM, the “activity higher than that of the known compound B” value (FLT3(ITD, F691L); FLT3 (ITD, F691L), ratio of Kd versus compound B) was 3.6 times and the Kd (FLT3(ITD)) was 3.6 nM.
